Data on one compound can be found in patent publication US20250134855A1, “CO[…] AND METHODS OF USING SAME” (LYKOS THERAPEUTICS, INC., priority 2022, published 2025).

The subject of data set [1] is participants with severe PTSD. Put plainly: MAPP1 Phase 3: Sheehan Disability Scale (SDS). In kind it is in vivo, human. From the text: FIG. 36 and FIG. 37 show the time course of improvement in Clinician Administered PTSD Scale for DSM-5 (CAPS-5) total severity score versus placebo. Each show a treatment difference between MDMA and placebo after 3 medication sessions with psychological intervention. […] Between the second and third treatment sessions, the difference between the groups appeared to continue to increase in both studies. The primary efficacy measure was change from baseline in the CAPS-5 total severity score at 18 weeks, which was evaluated 2 months after the final dosing session. The CAPS-5 is a 30-item, clinician-rated scale used to assess severity of PTSD symptoms and diagnostic status according to DSM-5 criteria, as described herein. Scores on the CAPS 5 range from 0 to 80, with higher scores indicating more severe PTSD symptoms. In both studies, a secondary efficacy measure was change from baseline in Sheehan Disability Scale (SDS) mean item scores at 18 weeks. The modified SDS is a 3-item, clinician-rated scale measuring the degree of functional impairment in work, family, and social life. Scores on the SDS mean items range from 0 to 10, with higher scores indicating more functional impairment. In these studies, the efficacy assessments were administered by blinded independent raters 18 to 30 days after medication sessions 1 and 2.
MAPP1 was a Phase 3 randomized, placebo-controlled, 2-arm, double-blind, multi-site study conducted to investigate the efficacy and safety of MDMA-AT in participants with severe PTSD. This study is also discussed in Mitchell et. al., Nature Medicine 2021, 27, 1025-1033. This study included 3 experimental sessions of therapy combined with either MDMA·HCl or placebo. During Experimental Session 1, participants received a split dose of 120 mg (80 mg+40 mg).
Participants received an escalated split dose of 180 mg during Experimental Sessions 2 and 3 unless there were tolerability issues or the participant declined. The primary outcome measure, the CAPS-5, evaluated changes in PTSD symptom severity and the secondary outcome measure, the SDS, evaluated changes in functional impairment. Both measures were assessed by a blinded centralized language-specific IR pool.
The de jure estimand of treatment efficacy was used to determine the effect of MDMA-AT on SDS total score.

In data set [2] the target is human ether-à-go-go-related gene (hERG) potassium current (Homo sapiens, UniProt Q12809). Nature of the data set: hERG potassium current inhibition.
Chain of human ether-à-go-go-related gene (hERG) potassium current (Q12809 whole entry): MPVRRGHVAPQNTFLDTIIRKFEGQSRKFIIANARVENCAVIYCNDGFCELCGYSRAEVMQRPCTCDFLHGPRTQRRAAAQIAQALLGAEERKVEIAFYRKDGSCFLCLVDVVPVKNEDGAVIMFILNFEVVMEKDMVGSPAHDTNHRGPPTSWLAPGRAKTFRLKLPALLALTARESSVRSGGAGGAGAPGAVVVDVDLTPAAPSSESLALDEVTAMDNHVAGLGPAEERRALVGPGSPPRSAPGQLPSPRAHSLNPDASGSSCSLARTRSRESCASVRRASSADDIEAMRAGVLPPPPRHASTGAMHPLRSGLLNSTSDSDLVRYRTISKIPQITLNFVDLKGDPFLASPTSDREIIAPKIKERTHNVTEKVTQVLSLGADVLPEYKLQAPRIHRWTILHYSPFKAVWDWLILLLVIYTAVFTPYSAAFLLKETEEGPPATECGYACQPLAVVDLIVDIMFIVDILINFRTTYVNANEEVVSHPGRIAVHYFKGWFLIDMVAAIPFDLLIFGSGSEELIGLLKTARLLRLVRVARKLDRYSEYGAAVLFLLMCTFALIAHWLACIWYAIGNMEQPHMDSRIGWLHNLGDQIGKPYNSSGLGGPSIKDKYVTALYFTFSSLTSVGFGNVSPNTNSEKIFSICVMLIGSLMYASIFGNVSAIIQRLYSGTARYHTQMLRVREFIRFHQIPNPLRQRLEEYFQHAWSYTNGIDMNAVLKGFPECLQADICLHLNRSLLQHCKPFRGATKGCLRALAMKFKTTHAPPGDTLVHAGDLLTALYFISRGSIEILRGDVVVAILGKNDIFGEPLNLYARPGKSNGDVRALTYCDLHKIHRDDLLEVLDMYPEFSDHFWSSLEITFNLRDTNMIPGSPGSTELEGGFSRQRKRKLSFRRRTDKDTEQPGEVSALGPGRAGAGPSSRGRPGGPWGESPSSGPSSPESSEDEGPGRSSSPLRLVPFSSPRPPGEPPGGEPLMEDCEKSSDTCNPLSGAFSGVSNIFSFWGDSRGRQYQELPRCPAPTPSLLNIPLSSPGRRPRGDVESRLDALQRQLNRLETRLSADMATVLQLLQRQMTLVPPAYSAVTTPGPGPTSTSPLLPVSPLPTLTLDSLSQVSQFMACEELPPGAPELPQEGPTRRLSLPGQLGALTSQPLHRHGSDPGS
Setting [3] is: MAPP1, mITT, Baseline (Visit 3).
Setting [4] is: MAPP1, mITT, Baseline to Visit 19.
The mark [5] stands for this setting: MAPP1, mITT, Visit 19 (Primary Endpoint).
Where [6] appears, read: end of treatment, 42 patients (study not given).

Molecules are shown by their SMILES.

Take `CNC(C)Cc1ccc2c(c1)OCO2` (centres unmarked) [MDMA, 3,4-methylenedioxymethamphetamine]: the “SDS Total Score CFB, LSMean” value in data set [1] (MAPP1, mITT, MMRM, Visit 19) was −3.15. Further, the “SDS Total Score CFB, LSMean for Treatment Difference” value in data set [1] (MAPP1, mITT, MMRM, vs placebo with therapy, Visit 19) is on record as −1.36. Besides, in data set [1] (setting [3]), the “SDS Total Score, Mean” value is recorded as 6.8 and the “SDS Total Score, Median” value is listed as 6.8. In data set [1] (setting [4]), the “SDS Total Score CFB, Mean” value is reported as −3.1 and the “SDS Total Score CFB, Median” value is recorded as −2.5. Further, in data set [1] (MAPP1, mITT, Visit 8), the “SDS Total Score, Mean” value amounted to 5.0 and the “SDS Total Score, Median” value turned out to be 5.0. In data set [1] (MAPP1, mITT, Visit 13), the “SDS Total Score, Mean” value is reported as 4.1 and the “SDS Total Score, Median” value came out at 4.7. In data set [1] (setting [5]), the “SDS Total Score, Mean” value stood at 3.8 and the “SDS Total Score, Median” value was found to be 3.4. Also, in data set [1] (MAPP1, MMRM, de jure estimand), the “reduction in SDS total scores” value is −3.15. Also, in data set [1] (setting [6]), the “SDS Remission (SDS mean item score < 3)” value is recorded as “(42.9) %”; the “SDS Remission (SDS mean item score < 3), n” value amounted to 18; the “SDS Responder (4 point or greater reduction from baseline SDS mean item score)” value is “(38.1) %”; the “SDS Responder (4 point or greater reduction from baseline SDS mean item score), n” value turned out to be 16. For the same compound, in data set [2], the IC50 came out at 206 µM. The “Hill coefficient, hERG” value in data set [2] (human) turned out to be 1.1. Also, the “margin of hERG IC50 over clinical plasma concentration” value in data set [2] (supratherapeutic single dose of 180 mg MDMA HCl) is listed as 111 x.

The term IC50 denotes the point on the concentration scale where inhibition reaches its midpoint.
